From patent US8796466B2, “Hepatitis C virus inhibitors” (Bristol-Myers Squibb Company, priority 2009, dated 2014)

system: HCV 1b genotype; experiment: HCV Replicon assay (HCV 1b genotype); assay type: cell-based, Hepatitis C virus; conditions: Hepatitis C virus; HCV 1b genotype replicon; Effective 50% inhibitory concentration; read-out: 1b EC50
Protocol: An HCV Replicon assay was utilized in the present disclosure, and was prepared, conducted and validated as described in commonly owned PCT/US2006/022197 and in O'Boyle et. al. Antimicrob Agents Chemother. 2005 April; 49(4):1346-53. Assay methods incorporating luciferase reporters have also been used as described (Apath.com).
HCV-neo replicon cells and replicon cells containing mutations in the NS5A region were used to test the currently described family of compounds. The compounds were determined to have more than 10-fold less inhibitory activity on cells containing mutations than wild-type cells. Thus, the compounds of the present disclosure can be effective in inhibiting the function of the HCV NS5A protein and are understood to be as effective in combinations as previously described in application PCT/US2006/022197 and commonly owned WO/04014852. Further, the compounds of the present disclosure can be effective against the HCV 1b genotype. It should also be understood that the compounds of the present disclosure can inhibit multiple genotypes of HCV. […] In one embodiment, compounds of the present disclosure are inhibitory versus 1a, 1b, 2a, 2b, 3a, 4a, and 5a genotypes.

Point of comparison: `O=C([C@H](O)c1ccccc1)N1CCC[C@H]1c1nc(-c2ccc(Oc3ccc(-c4cnc([C@@H]5CCCN5C(=O)[C@H](O)c5ccccc5)[nH]4)cc3)cc2)c[nH]1` [OL-2, (1R)-2-((2S)-2-(4-(4-(4-(2-((2S)-1-((2R)-2-hydroxy-2-phenylacetyl)-2-pyrrolidinyl)-1H-imidazol-5-yl)phenoxy)phenyl)-1H-imidazol-2-yl)-1-pyrrolidinyl)-2-oxo-1-phenylethanol], EC50 9100 pM. Against it:
- COC(=O)N[C@H](C(=O)N1CCC[C@H]1c1nc(-c2cccc(C#Cc3cccc(-c4c[nH]c([C@@H]5CCCN5)n4)c3)c2)c[nH]1)C(C)C [Example J1.1, methyl ((1S)-2-methyl-1-(((2S)-2-(4-(3-((3-(2-((2S)-2-pyrrolidinyl)-1H-imidazol-4-yl)phenyl)ethynyl)phenyl)-1H-imidazol-2-yl)-1-pyrrolidinyl)carbonyl)propyl)carbamate] — 37-fold higher, 339000 pM

same assay, conditions: Hepatitis C virus; HCV 1b genotype replicon; class symbol; read-out: Range (EC50 values against HCV 1b)

`COC(=O)N[C@H](C(=O)N1CCC[C@H]1c1nc(-c2ccc(C#Cc3ccc(-c4c[nH]c([C@@H]5CCCN5C(=O)[C@@H](NC(=O)OC)C5CCOCC5)n4)cc3)cc2)c[nH]1)C1CCOCC1` [Example M2.1, dimethyl (1,2-ethynediylbis(4,1-phenylene-1H-imidazole-4,2-diyl(2S)-2,1-pyrrolidinediyl((1S)-2-oxo-1-(tetrahydro-2H-pyran-4-yl)-2,1-ethanediyl)))biscarbamate] and `COC(=O)N[C@H](C(=O)N1[C@@H](C)CC[C@H]1c1nc(-c2ccc(C#Cc3ccc(-c4c[nH]c([C@@H]5CC[C@H](C)N5C(=O)[C@@H](NC(=O)OC)C5CCOCC5)n4)cc3)cc2)c[nH]1)C1CCOCC1` [Example M12, dimethyl (1,2-ethynediylbis(4,1-phenylene-1H-imidazole-4,2-diyl((2S,5S)-5-methyl-2,1-pyrrolidinediyl)((1S)-2-oxo-1-(tetrahydro-2H-pyran-4-yl)-2,1-ethanediyl)))biscarbamate] fall in the same range of EC50: 2 to 99 pM for the first, 2 to 99 pM for the second.

`CCNC(=O)N[C@@H](C(=O)N1CCC[C@H]1c1nc(-c2ccc(CCc3ccc(-c4c[nH]c([C@@H]5CCCN5C(=O)[C@H](NC(=O)NCC)c5ccccc5)n4)cc3)cc2)c[nH]1)c1ccccc1` [OL-12, N′,N′″-(1,2-ethanediylbis(4,1-phenylene-1H-imidazole-4,2-diyl(2S)-2,1-pyrrolidinediyl((1R)-2-oxo-1-phenyl-2,1-ethanediyl)))bis(1-ethylurea)] and `CCNC(=O)N[C@@H](C(=O)N1CCC[C@H]1c1nc(-c2ccc(COCc3cccc(-c4c[nH]c([C@@H]5CCCN5C(=O)[C@H](NC(=O)NCC)c5ccccc5)n4)c3)cc2)c[nH]1)c1ccccc1` [OL-24, 1-ethyl-3-((1R)-2-((2S)-2-(4-(3-(((4-(2-((2S)-1-((2R)-2-((ethylcarbamoyl)amino)-2-phenylacetyl)-2-pyrrolidinyl)-1H-imidazol-4-yl)benzyl)oxy)methyl)phenyl)-1H-imidazol-2-yl)-1-pyrrolidinyl)-2-oxo-1-phenylethyl)urea] fall in the same range of EC50: 2 to 99 pM for the first, 2 to 99 pM for the second.

First: O=C(NC1CCCC1)N[C@@H](C(=O)N1CCC[C@H]1c1nc(-c2ccc(COCc3cccc(-c4c[nH]c([C@@H]5CCCN5C(=O)[C@H](NC(=O)NC5CCCC5)c5ccccc5)n4)c3)cc2)c[nH]1)c1ccccc1 [OL-25, 1-cyclopentyl-3-((1R)-2-((2S)-2-(4-(3-(((4-(2-((2S)-1-((2R)-2-((cyclopentylcarbamoyl)amino)-2-phenylacetyl)-2-pyrrolidinyl)-1H-imidazol-4-yl)benzyl)oxy)methyl)phenyl)-1H-imidazol-2-yl)-1-pyrrolidinyl)-2-oxo-1-phenylethyl)urea]
Second: O=C(NC1CCCC1)N[C@@H](C(=O)N1CCC[C@H]1c1nc(-c2ccc(COCc3ccc(-c4cnc([C@@H]5CCCN5C(=O)[C@H](NC(=O)NC5CCCC5)c5ccccc5)[nH]4)cc3)cc2)c[nH]1)c1ccccc1 [OL-19, 1-cyclopentyl-3-((1R)-2-((2S)-2-(4-(4-(((4-(2-((2S)-1-((2R)-2-((cyclopentylcarbamoyl)amino)-2-phenylacetyl)-2-pyrrolidinyl)-1H-imidazol-5-yl)benzyl)oxy)methyl)phenyl)-1H-imidazol-2-yl)-1-pyrrolidinyl)-2-oxo-1-phenylethyl)urea]
The EC50 of the first is lower: 2 to 99 pM for the first, 1000 to 9900 pM for the second. The first is the more potent here.

Compared with `COC(=O)N[C@H](C(=O)N1[C@@H](C)CC[C@H]1c1ncc(-c2ccc(C#Cc3ccc(-c4cnc([C@@H]5CC[C@H](C)N5C(=O)[C@@H](NC(=O)OC)C(C)C)[nH]4)cc3)cc2)[nH]1)C(C)C` [Example M10, methyl ((1S)-1-(((2S,5S)-2-(4-(4-((4-(2-((2S,5S)-1-((2S)-2-((methoxycarbonyl)amino)-3-methylbutanoyl)-5-methyl-2-pyrrolidinyl)-1H-imidazol-4-yl)phenyl)ethynyl)phenyl)-1H-imidazol-2-yl)-5-methyl-1-pyrrolidinyl)carbonyl)-2-methylpropyl)carbamate], `COC(=O)N[C@H](C(=O)N1[C@H](c2ncc(-c3ccc(C#Cc4ccc(-c5cnc([C@@H]6C[C@@H]7C[C@@H]7N6C(=O)[C@@H](NC(=O)OC)C(C)C)[nH]5)cc4)cc3)[nH]2)C[C@@H]2C[C@@H]21)C(C)C` [Example N8, methyl((1S)-1-(((1S,3S,5S)-3-(4-(4-((4-(2-((1S,3S,5S)-2-((2S)-2-((methoxycarbonyl)amino)-3-methylbutanoyl)-2-azabicyclo[3.1.0]hex-3-yl)-1H-imidazol-4-yl)phenyl)ethynyl)phenyl)-1H-imidazol-2-yl)-2-azabicyclo[3.1.0]hex-2-yl)carbonyl)-2-methylpropyl)carbamate] is higher in EC50: 2 to 99 pM for the first, 10000 to 350000 pM for the second. The first is the more potent here.

First: COC(=O)N[C@H](C(=O)N1CCC[C@H]1c1nc(-c2cccc(C#Cc3cccc(-c4c[nH]c([C@@H]5CCCN5)n4)c3)c2)c[nH]1)C(C)C [Example J1.1, methyl ((1S)-2-methyl-1-(((2S)-2-(4-(3-((3-(2-((2S)-2-pyrrolidinyl)-1H-imidazol-4-yl)phenyl)ethynyl)phenyl)-1H-imidazol-2-yl)-1-pyrrolidinyl)carbonyl)propyl)carbamate]
Second: COC(=O)N[C@H](C(=O)N1CCC[C@H]1c1nc(-c2ccc(C#Cc3ccc(-c4ccc(-c5c[nH]c([C@@H]6CCCN6C(=O)[C@@H](NC(=O)OC)C(C)C)n5)cc4)cc3)cc2)c[nH]1)C(C)C [Example J5, methyl ((1S)-1-(((2S)-2-(4-(4′-((4-(2-((2S)-1-((2S)-2-((methoxycarbonyl)amino)-3-methylbutanoyl)-2-pyrrolidinyl)-1H-imidazol-4-yl)phenyl)ethynyl)-4-biphenylyl)-1H-imidazol-2-yl)-1-pyrrolidinyl)carbonyl)-2-methylpropyl)carbamate]
The EC50 of the first is higher: 10000 to 350000 pM for the first, 2 to 99 pM for the second. The second is the more potent here.

First: COC(=O)N[C@H](C(=O)N1C[C@@H](C)C[C@H]1c1nc(-c2ccc(C#Cc3ccc(-c4[nH]c([C@@H]5C[C@H](C)CN5C(=O)[C@@H](NC(=O)OC)C5CCOCC5)nc4Cl)cc3)cc2)c[nH]1)C1CCOCC1 [Example M12.6, methyl ((1S)-2-((2S,4S)-2-(4-(4-((4-(4-chloro-2-((2S,4S)-1-((2S)-2-((methoxycarbonyl)amino)-2-(tetrahydro-2H-pyran-4-yl)acetyl)-4-methyl-2-pyrrolidinyl)-1H-imidazol-5-yl)phenyl)ethynyl)phenyl)-1H-imidazol-2-yl)-4-methyl-1-pyrrolidinyl)-2-oxo-1-(tetrahydro-2H-pyran-4-yl)ethyl)carbamate]
Second: COC(=O)N[C@H](C(=O)N1[C@@H]2C[C@@H]2C[C@H]1c1nc(-c2ccc(C#Cc3ccc(-c4c[nH]c([C@@H]5C[C@H]6C[C@H]6N5C(=O)[C@@H](NC(=O)OC)C5CCC5)n4)cc3)cc2)c[nH]1)C1CCC1 [Example M5, dimethyl (1,2-ethynediylbis(4,1-phenylene-1H-imidazole-4,2-diyl(1R,3S,5R)-2-azabicyclo[3.1.0]hexane-3,2-diyl((1S)-1-cyclobutyl-2-oxo-2,1-ethanediyl)))biscarbamate]
The EC50 of the first is lower: 2 to 99 pM for the first, 100 to 990 pM for the second. The first is the more potent here.

`COC(=O)N[C@H](C(=O)N1[C@@H]2C[C@@H]2C[C@H]1c1nc(-c2ccc([C@@H]3C[C@H]3c3ccc(-c4c[nH]c([C@@H]5C[C@H]6C[C@H]6N5C(=O)[C@@H](NC(=O)OC)C(C)C)n4)cc3)cc2)c[nH]1)C(C)C` [m9.5, methyl ((1S)-1-(((1R,3S,5R)-3-(4-(4-((1R,2R)-2-(4-(2-((1R,3S,5R)-2-((2S)-2-((methoxycarbonyl)amino)-3-methylbutanoyl)-2-azabicyclo[3.1.0]hex-3-yl)-1H-imidazol-4-yl)phenyl)cyclopropyl)phenyl)-1H-imidazol-2-yl)-2-azabicyclo[3.1.0]hex-2-yl)carbonyl)-2-methylpropyl)carbamate] and `COC(=O)N[C@H](C(=O)N1[C@@H]2C[C@@H]2C[C@H]1c1nc2ccc3cc(C#Cc4ccc5c(ccc6nc([C@@H]7C[C@H]8C[C@H]8N7C(=O)[C@@H](NC(=O)OC)C(C)C)[nH]c65)c4)ccc3c2[nH]1)C(C)C` [Example D-10, methyl ((1S)-1-(((1R,3S,5R)-3-(7-((2-((3S)-2-((2S)-2-((methoxycarbonyl)amino)-3-methylbutanoyl)-2-azabicyclo[3.1.0]hex-3-yl)-1H-naphtho[1,2-d]imidazol-7-yl)ethynyl)-1H-naphtho[1,2-d]imidazol-2-yl)-2-azabicyclo[3.1.0]hex-2-yl)carbonyl)-2-methylpropyl)carbamate] fall in the same range of EC50: 2 to 99 pM for the first, 2 to 99 pM for the second.

First: O=C([C@H](O)c1ccccc1)N1CCC[C@H]1c1nc(-c2ccc(Oc3ccc(-c4cnc([C@@H]5CCCN5C(=O)[C@H](O)c5ccccc5)[nH]4)cc3)cc2)c[nH]1 [OL-2, (1R)-2-((2S)-2-(4-(4-(4-(2-((2S)-1-((2R)-2-hydroxy-2-phenylacetyl)-2-pyrrolidinyl)-1H-imidazol-5-yl)phenoxy)phenyl)-1H-imidazol-2-yl)-1-pyrrolidinyl)-2-oxo-1-phenylethanol]
Second: O=C([C@H](O)c1ccccc1)N1CCC[C@H]1c1nc(-c2ccc(CCc3ccc(-c4c[nH]c([C@@H]5CCCN5C(=O)[C@H](O)c5ccccc5)n4)cc3)cc2)c[nH]1 [OL-10, (1R,1′R)-2,2′-(1,2-ethanediylbis(4,1-phenylene-1H-imidazole-4,2-diyl(2S)-2,1-pyrrolidinediyl))bis(2-oxo-1-phenylethanol)]
The EC50 of the first is higher: 1000 to 9900 pM for the first, 2 to 99 pM for the second. The second is the more potent here.
